Measurements: publication PMC10224444, “Novel Perspectives on the Design and Development of a Long-Acting Subcutaneous Raltegravir Injection for Treatment of HIV—In Vitro and In Vivo Evaluation” (Pharmaceutics, 2023)

Assays:
[1] = parameters: method as in PMID 23515248; conditions: cited from earlier work
[2] = parameters: method as in PMID 18321239; conditions: cited from earlier work
[3] = Pharmacokinetic study after single SC injection in BALB/c mice; assay type: in vivo; conditions: mouse, in vivo, single SC 30 mg/kg
Procedure: The pharmacokinetic profile of prodrug 25 was evaluated in mice, in a study undertaken at WuXi AppTec. Prodrug 25 was dissolved in a sterile vehicle of DMSO/Solutol HS15/water (10:10:80) to give a clear solution with a final concentration of 6 mg/mL. The same procedure was used to prepare a 6 mg/mL solution of RAL as a control. Six male BALB/c mice were used, each weighing 18–25 g and aged between 7–9 weeks (three per group). A single 30 mg/kg dose of prodrug 25 was administered to each animal in the treatment group (subcutaneously, in the thoracic region). Similarly, RAL (30 mg/kg) was administered to each animal in the control group. Blood samples were taken at the time points indicated below, up to the experiment endpoint (96 h).
For each animal, blood samples (30 μL each) were collected from the submandibular or saphenous vein over a period of 96 h, at the following time points: zero/pre-dose; then 0.25, 0.5, 1, 2, 3, 4, 5, 6, 24, 48, and 96 h. All samples were transferred into pre-chilled commercial K2EDTA tubes and placed on wet ice until processing for plasma, which was obtained by centrifugation at 4 °C and 3200× g for 10 min, within 30 min of sampling. The plasma samples were transferred to polypropylene tubes, snap-frozen on dry ice, and kept at −70 ± 10 °C until LC-MS/MS analysis.
An LC-MS/MS method was developed to measure the concentrations of prodrug 25 and RAL in the biological matrix. Two mobile phases were used: mobile phase A (0.025% NH4OH and 2 mM NH4OAc in 95:5 v/v water/MeCN) and mobile phase B (0.025% NH4OH and 2 mM NH4OAc in 5:95 v/v water/MeCN). A UPLC method was performed using an LC-MS/MS-BM Triple Quad 6500 plus system with an ACQUITY UPLC BEH C18 1.7 μm column (2.1 × 50 mm) at a flow rate of 0.65 mL/min. The assay time was 2.5 min, and the solvent B composition was as follows: 10–100% (0.2–1.4 min), 30% (1.41–1.7 min), 95% (2.0–2.4 min), and 10% (2.41–2.5 min). The retention times for the prodrug, RAL and the internal standards (tolbutamide and verapamil) were 0.76, 1.04, 0.66, and 0.97 min, respectively. Quantification was performed by monitoring the transition of m/z 835.3 [M+H]^+ to 457.2 for prodrug 25, representing the cyclisation of the linker with the amidic RAL such as in side-product 22; whereas for RAL, the transition m/z 445.2 [M+H]^+ to 361.2 was followed, representing the loss of the 2-methyl-1,3,4-oxadiazole moiety as the main fragmentation pathway. For the internal standards, the m/z transition from 455.2 [M+H]^+ to 164.9 was used for verapamil (corresponding to formation of the verapamil fragment [CH2CH2-(3,4-dimethoxy phenyl)]^+), and for tolbutamide, the transition of m/z of 271.1 [M+H]^+ to 155.1 was used, representing formation of the [CH3-Ph-SO2]^+ fragment. […] The method was linear over the measured standard concentrations for 25 and RAL. The mean plasma concentration was determined for 25 and RAL (as metabolite or control) at each sampling time point. Pharmacokinetic parameters were then calculated by non-compartmental analysis of plasma concentration/time profiles using the Phoenix WinNonlin 6.3 software. The computed parameters were as follows: peak plasma concentration (Cmax); the time over which the initial concentration is reduced to half (t½); area under the plasma concentration versus time curve from time zero to 96 h (AUC 0–96 h); and mean residence time from time zero to 96 h (MRT 0–96 h).
Since in vitro models are not fully predictive of in vivo pharmacokinetics, especially for prodrugs, assessment of these characteristics still relies on in vivo studies. Therefore, the pharmacokinetic profile of prodrug 25 was evaluated in mice. Compound 25 and the control (RAL) were dissolved in DMSO/Solutol HS15/water (10:10:80). For a single SC injection of 25 (30 mg/kg) in BALB/c mice (n = 3), the plasma concentrations of prodrug and released RAL were measured at the following time points: zero/pre-dose; then 0.25, 0.5, 1, 2, 3, 4, 5, 6, 24, 48, and 96 h. […]

[4] = parameters: method as in PMID 36678931; conditions: pH 6.5, over 6 d; cited from earlier work
[5] = parameters: method as in PMID 33979164; conditions: cited from earlier work
[6] = parameters: method as in PMID 33979164; conditions: pH 7.0, within 1 h; cited from earlier work
[7] = parameters: method as in PMID 33979164; conditions: cited from earlier work; remark: listed apart in the source
[8] = plasma level of the dosed compound, male BALB/c mice, n = 3

## Cc1nnc(C(=O)NC(C)(C)c2nc(C(=O)NCc3ccc(F)cc3)c(O)c(=O)n2C)o1 [RAL, raltegravir]
[1]
  pKa: 6.7
[2]
  half-life (t½): 7 to 12 h
[3]; male, RAL control, BALB/c mice, 6 h, read-out: plasma concentration remaining after 6 h
  concentration at 6 h: 10.7 ng/mL
[3]; [8]
  Cmax: 6230 ng/mL
  Tmax: 19.8 min
[3]; plasma level of the dosed compound, male BALB/c mice, n = 3, read-out: AUC 0–96 h
  AUC(0-t): 9890 ng·h/mL
[3]; plasma level of the dosed compound, male BALB/c mice, n = 3, read-out: t½ (converted)
  half-life: 45.6 min

## C#CCCCNCCCCOC(=O)OCOc1ccc(N)cc1C(=O)O [Compound 4]
[4]
  release of mesalamine over 6 d: 92%

## CNCCOC(=O)OCOc1c(-c2ccc(Oc3ccc(OC(F)(F)F)cc3)cc2F)c(C)nc2cc(OC)c(Cl)cc12 [Compound 1]
[5]
  oral bioavailability compared with the parent compound: enhanced
[6]
  parent compound released within 1 h: > 90%
[7]
  aqueous solubility compared with the parent compound: enhanced
